# Assay results published in US10266526B2, “Substituted 1,2,3-triazoles as SMYD inhibitors for treating cancer” (EPIZYME, INC., priority 2014, dated 2019).
# Molecular target: SMYD2 (Homo sapiens (Human), UniProt Q9NRG4)
# Assay: SMYD2 biochemical assay (SMYD2 enzyme assay on peptide substrate, 3H-SAM Flashplate)
# Conditions: read-out: SMYD2 Biochem IC50; IC50 values are an average of n = 1 to n = 50
# Excerpt: S-adenosylmethionine (SAM), S-adenosylhomocysteine (SAH), bicine, Tween20, dimethylsulfoxide (DMSO), bovine skin gelatin (BSG), and Tris(2-carboxyethyl)phosphine hydrochloride (TCEP) were purchased from Sigma-Aldrich at the highest level of purity possible. ^3H-SAM was purchase from American Radiolabeled Chemicals with a specific activity of 80 Ci/mmol. 384-well streptavidin Flashplates were purchased from PerkinElmer.
# The sequence was [sequence](K-Biot)-amide.
# Production of Recombinant SMYD2 Enzymes for Biochemical Enzyme Activity Assays
# Full length SMYD2 (NP_064582.2) was cloned into a pFastbac-Htb-lic vector with an N-terminal His6 tag and FLAG tag, preceded by a TEV protease cleavage site. The protein was expressed in Sf9 insect cells. Cells were resuspended in lysis buffer (25 mM HEPES-NaOH, pH 7.5, 200 mM NaCl, 5% glycerol, and 5 mM (3-ME) and lysed by sonication. The protein was purified by Ni-NTA (Qiagen), followed by TEV cleavage to remove the His6 tag, subtractive Ni-NTA (Qiagen), and gel filtration chromatography using an S200 column (GE Healthcare). Purified protein was stored in 20 mM Tris-HCl, pH 8.0, 100 mM NaCl, and 1 mM TCEP.
# General Procedure for SMYD2 Enzyme Assays on Peptide Substrates
# The assays were all performed in a buffer consisting of 20 mM Bicine (pH=7.6), 1 mM TCEP, 0.005% Bovine Skin Gelatin, and 0.002% Tween20, prepared on the day of use. […] DMSO (1 ul) was added to Columns 11, 12, 23, 24, rows A-H for the maximum signal control and 1 ul of SAH, a known product and inhibitor of SMYD2, was added to columns 11, 12, 23, 24, rows I-P for the minimum signal control. A cocktail (40 ul) containing the SMYD2 enzyme was added by Multidrop Combi (Thermo-Fisher). The compounds were allowed to incubate with SMYD2 for 30 min at room temperature, then a cocktail (10 ul) containing ^3H-SAM and peptide was added to initiate the reaction (final volume=51 ul). […] The assays were stopped by the addition of non-radioactive SAM (10 ul) to a final concentration of 600 uM, which dilutes the ^3H-SAM to a level where its incorporation into the peptide substrate is no longer detectable. 50 ul of the reaction in the 384-well polypropylene plate was then transferred to a 384-well Flashplate and the biotinylated peptides were allowed to bind to the streptavidin surface for at least 1 hour before being washed three times with 0.1% Tween20 in a Biotek ELx405 plate washer. The plates were then read in a PerkinElmer TopCount plate reader to measure the quantity of ^3H-labeled peptide bound to the Flashplate surface, measured as disintegrations per minute (dpm) or alternatively, referred to as counts per minute (cpm).
# Where dpm=disintegrations per minute, cmpd=signal in assay well, and min and max are the respective minimum and maximum signal controls.
# Where top and bottom are the normally allowed to float, but may be fixed at 100 or 0 respectively in a 3-parameter fit. The Hill Coefficient normally allowed to float but may also be fixed at 1 in a 3-parameter fit. I is the compound concentration.
# SMYD2, sequence (Q9NRG4 whole entry): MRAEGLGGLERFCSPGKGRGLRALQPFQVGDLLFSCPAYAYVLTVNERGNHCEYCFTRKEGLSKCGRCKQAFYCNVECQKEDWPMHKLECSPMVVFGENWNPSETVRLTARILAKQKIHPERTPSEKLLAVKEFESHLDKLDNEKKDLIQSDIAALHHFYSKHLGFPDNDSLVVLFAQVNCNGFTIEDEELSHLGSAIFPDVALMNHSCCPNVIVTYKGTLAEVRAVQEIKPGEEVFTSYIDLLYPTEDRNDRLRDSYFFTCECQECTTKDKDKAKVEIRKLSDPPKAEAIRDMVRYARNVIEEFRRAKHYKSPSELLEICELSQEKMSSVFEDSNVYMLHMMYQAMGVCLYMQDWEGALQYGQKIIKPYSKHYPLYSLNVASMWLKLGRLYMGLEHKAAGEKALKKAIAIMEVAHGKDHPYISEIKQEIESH
row,Structure (SMILES),IC50 [nM]
1,"CC(c1n[nH]c2ccccc12)N1CC(NC(=O)c2cn(C3CC3)nn2)C1 (stereo not shown) [compound 761, 1-cyclopropyl-N-{1-[1-(1H-indazol-3-yl)ethyl]azetidin-3-yl}-1H-1,2,3-triazole-4-carboxamide]",3210
2,"COc1cccc2c1C(N1CC(NC(=O)c3cn(C4CC4)nn3)C1)CC2 (stereo not shown) [compound 762, 1-cyclopropyl-N-[1-(7-methoxy-2,3-dihydro-1H-inden-1-yl)azetidin-3-yl]-1H-1,2,3-triazole-4-carboxamide]",7970
3,"O=C(NC1CN(Cc2ccc3c(c2)C(=O)NC3)C1)c1cn(C2CC2)nn1 [compound 765, 1-cyclopropyl-N-{1-[(3-oxo-2,3-dihydro-1H-isoindol-5-yl)methyl]azetidin-3-yl}-1H-1,2,3-triazole-4-carboxamide]",10200
4,"O=C(NC1CN(C(c2ccccc2)C(F)(F)F)C1)c1cn(C2CC2)nn1 (stereo not shown) [compound 766, 1-cyclopropyl-N-[1-(2,2,2-trifluoro-1-phenylethyl)azetidin-3-yl]-1H-1,2,3-triazole-4-carboxamide]",> 50000
5,"CC(c1ccc2c(c1)OCCO2)N1CC(NC(=O)c2cn(C3CC3)nn2)C1 (stereo not shown) [compound 767, 1-cyclopropyl-N-{1-[1-(2,3-dihydro-1,4-benzodioxin-6-yl)ethyl]azetidin-3-yl}-1H-1,2,3-triazole-4-carboxamide]",576
6,"COc1cccc(OC)c1C(C)N1CC(NC(=O)c2cn(C3CC3)nn2)C1 (stereo not shown) [compound 768, 1-cyclopropyl-N-{1-[1-(2,6-dimethoxyphenyl)ethyl]azetidin-3-yl}-1H-1,2,3-triazole-4-carboxamide]",1680
7,"CC(c1c(Cl)cccc1Cl)N1CC(NC(=O)c2cn(C3CC3)nn2)C1 (stereo not shown) [compound 769, 1-cyclopropyl-N-{1-[1-(2,6-dichlorophenyl)ethyl]azetidin-3-yl}-1H-1,2,3-triazole-4-carboxamide]",1200
8,"CC(C)N1CC(NC(=O)c2cn(C3CC3(F)F)nn2)C1 (stereo not shown) [compound 770, 1-(2,2-difluorocyclopropyl)-N-[1-(propan-2-yl)azetidin-3-yl]-1H-1,2,3-triazole-4-carboxamide]",4190
9,"COc1c(CO)cccc1CN1CC(NC(=O)c2cn(C3CC3)nn2)C1 [compound 772, 1-cyclopropyl-N-(1-{[3-(hydroxymethyl)-2-methoxyphenyl]methyl}azetidin-3-yl)-1H-1,2,3-triazole-4-carboxamide]",10800
10,"CS(=O)(=O)CC(c1ccccc1)N1CC(NC(=O)c2cn(C3CC3)nn2)C1 (stereo not shown) [compound 773, 1-cyclopropyl-N-[1-(2-methanesulfonyl-1-phenylethyl)azetidin-3-yl]-1H-1,2,3-triazole-4-carboxamide]",> 50000
11,"CC(c1ccc2c(c1)NC(=O)CO2)N1CC(NC(=O)c2cn(C3CC3)nn2)C1 (stereo not shown) [compound 774, 1-cyclopropyl-N-{1-[1-(3-oxo-3,4-dihydro-2H-1,4-benzoxazin-6-yl)ethyl]azetidin-3-yl}-1H-1,2,3-triazole-4-carboxamide]",1620
12,"CC(c1cccc(OCCO)c1Cl)N1CC(NC(=O)c2cn(C3CC3)nn2)C1 (stereo not shown) [compound 775, N-(1-{1-[2-chloro-3-(2-hydroxyethoxy)phenyl]ethyl}azetidin-3-yl)-1-cyclopropyl-1H-1,2,3-triazole-4-carboxamide]",49.4
13,"COc1c(OCCO)cccc1C(C)N1CC(NC(=O)c2cn(C3CC3)nn2)C1 (stereo not shown) [compound 776, 1-cyclopropyl-N-(1-{1-[3-(2-hydroxyethoxy)-2-methoxyphenyl]ethyl}azetidin-3-yl)-1H-1,2,3-triazole-4-carboxamide]",345
14,"COc1nn(C)cc1CN1CC(NC(=O)c2cn(C3CC3)nn2)C1 [compound 777, 1-cyclopropyl-N-{1-[(3-methoxy-1-methyl-1H-pyrazol-4-yl)methyl]azetidin-3-yl}-1H-1,2,3-triazole-4-carboxamide]",5620
15,"O=C(NC1CN(C2(c3ccccc3)COC2)C1)c1cn(C2CC2)nn1 [compound 781, 1-cyclopropyl-N-[1-(3-phenyloxetan-3-yl)azetidin-3-yl]-1H-1,2,3-triazole-4-carboxamide]",> 50000
16,"O=C(NC1CN(Cc2cn(CCc3ccccc3)cn2)C1)c1cn(C2CC2)nn1 [compound 782, 1-cyclopropyl-N-(1-{[1-(2-phenylethyl)-1H-imidazol-4-yl]methyl}azetidin-3-yl)-1H-1,2,3-triazole-4-carboxamide]",2620
17,"CC(=O)Nc1cccc(C(C)N2CC(NC(=O)c3cn(C4CC4)nn3)C2)c1 (stereo not shown) [compound 783, 1-cyclopropyl-N-{1-[1-(3-acetamidophenyl)ethyl]azetidin-3-yl}-1H-1,2,3-triazole-4-carboxamide]",3140
18,"Cn1cnc(CN2CC(NC(=O)c3cn(C4CC4)nn3)C2)c1Cl [compound 784, N-{1-[(5-chloro-1-methyl-1H-imidazol-4-yl)methyl]azetidin-3-yl}-1-cyclopropyl-1H-1,2,3-triazole-4-carboxamide]",21000
19,"CC(c1c[nH]cn1)N1CC(NC(=O)c2cn(C3CC3)nn2)C1 (stereo not shown) [compound 785, 1-cyclopropyl-N-{1-[1-(1H-imidazol-4-yl)ethyl]azetidin-3-yl}-1H-1,2,3-triazole-4-carboxamide]",2590

row,Structure (SMILES),IC50 [nM]
1,"O=C(NC1CN(C(c2ccc(F)cc2)C2CC2)C1)c1cn(C2CC2)nn1 (stereo not shown) [compound 786, 1-cyclopropyl-N-{1-[cyclopropyl(4-fluorophenyl)methyl]azetidin-3-yl}-1H-1,2,3-triazole-4-carboxamide]",1700
2,"CC(C)C(c1ccccc1)N1CC(NC(=O)c2cn(C3CC3)nn2)C1 (stereo not shown) [compound 787, 1-cyclopropyl-N-[1-(2-methyl-1-phenylpropyl)azetidin-3-yl]-1H-1,2,3-triazole-4-carboxamide]",1430
3,"CCC(c1ccccn1)N1CC(NC(=O)c2cn(C3CC3)nn2)C1 (stereo not shown) [compound 791, 1-cyclopropyl-N-{1-[1-(pyridin-2-yl)propyl]azetidin-3-yl}-1H-1,2,3-triazole-4-carboxamide]",2470
4,"O=C(NC1CN(Cc2cnn(Cc3ccccc3)c2)C1)c1cn(C2CC2)nn1 [compound 792, N-{1-[(1-benzyl-1H-pyrazol-4-yl)methyl]azetidin-3-yl}-1-cyclopropyl-1H-1,2,3-triazole-4-carboxamide]",16.4
5,"COc1ccc2c(c1)CCCC2N1CC(NC(=O)c2cn(C3CC3)nn2)C1 (stereo not shown) [compound 793, 1-cyclopropyl-N-[1-(6-methoxy-1,2,3,4-tetrahydronaphthalen-1-yl)azetidin-3-yl]-1H-1,2,3-triazole-4-carboxamide]",9920
6,"COc1c(CN)cccc1CN1CC(NC(=O)c2cn(C3CC3)nn2)C1 [compound 794, N-(1-{[3-(aminomethyl)-2-methoxyphenyl]methyl}azetidin-3-yl)-1-cyclopropyl-1H-1,2,3-triazole-4-carboxamide]",32300
7,"O=C(NC1CN(Cc2cn(Cc3ccccc3)cn2)C1)c1cn(C2CC2)nn1 [compound 795, N-{1-[(1-benzyl-1H-imidazol-4-yl)methyl]azetidin-3-yl}-1-cyclopropyl-1H-1,2,3-triazole-4-carboxamide]",7150
8,"CC(c1ccccc1OCc1ccccc1)N1CC(NC(=O)c2cn(C3CC3)nn2)C1 (stereo not shown) [compound 796, N-(1-{1-[2-(benzyloxy)phenyl]ethyl}azetidin-3-yl)-1-cyclopropyl-1H-1,2,3-triazole-4-carboxamide]",422
9,"CC(c1ccc(-n2ccnc2)cc1)N1CC(NC(=O)c2cn(C3CC3)nn2)C1 (stereo not shown) [compound 797, 1-cyclopropyl-N-(1-{1-[4-(1H-imidazol-1-yl)phenyl]ethyl}azetidin-3-yl)-1H-1,2,3-triazole-4-carboxamide]",1570
10,"CCC(c1ccccc1F)N1CC(NC(=O)c2cn(C3CC3)nn2)C1 (stereo not shown) [compound 798, 1-cyclopropyl-N-{1-[1-(2-fluorophenyl)propyl]azetidin-3-yl}-1H-1,2,3-triazole-4-carboxamide]",425
11,"CC(C)N1CC(NC(=O)c2cn(C3CC3)nn2)C1(C)C (stereo not shown) [compound 799, 1-cyclopropyl-N-[2,2-dimethyl-1-(propan-2-yl)azetidin-3-yl]-1H-1,2,3-triazole-4-carboxamide]",9600
12,"COc1cc(OCc2ccccc2)ccc1C(C)N1CC(NC(=O)c2cn(C3CC3)nn2)C1 (stereo not shown) [compound 800, N-(1-{1-[4-(benzyloxy)-2-methoxyphenyl]ethyl}azetidin-3-yl)-1-cyclopropyl-1H-1,2,3-triazole-4-carboxamide]",965
13,"COc1ccc(C(C)N2CC(NC(=O)c3cn(C4CC4)nn3)C2)c(OC)c1 (stereo not shown) [compound 801, 1-cyclopropyl-N-{1-[1-(2,4-dimethoxyphenyl)ethyl]azetidin-3-yl}-1H-1,2,3-triazole-4-carboxamide]",1060
14,"O=C(NC1CN(Cc2ccc(OCc3ccccc3)cc2)C1)c1cn(C2CC2)nn1 [compound 802, N-(1-{[4-(benzyloxy)phenyl]methyl}azetidin-3-yl)-1-cyclopropyl-1H-1,2,3-triazole-4-carboxamide]",83.4
15,"COc1cccc(C(C)N2CC(NC(=O)c3cn(C4CC4)nn3)C2)c1Cl (stereo not shown) [compound 803, N-{1-[1-(2-chloro-3-methoxyphenyl)ethyl]azetidin-3-yl}-1-cyclopropyl-1H-1,2,3-triazole-4-carboxamide]",69.5
16,"O=C(NC1CN(Cc2cnn(CCc3ccccc3)c2)C1)c1cn(C2CC2)nn1 [compound 806, 1-cyclopropyl-N-(1-{[1-(2-phenylethyl)-1H-pyrazol-4-yl]methyl}azetidin-3-yl)-1H-1,2,3-triazole-4-carboxamide]",970
17,"O=C(NC1CN(Cc2cnn(CCc3ccccc3)c2)C1)c1cc(C2CC2)cnn1 [compound 807, 5-cyclopropyl-N-(1-{[1-(2-phenylethyl)-1H-pyrazol-4-yl]methyl}azetidin-3-yl)pyridazine-3-carboxamide]",528
18,"CC(C)N1CCCC(NC(=O)c2cn(C3CC3)nn2)C1 (stereo not shown) [compound 808, 1-cyclopropyl-N-[1-(propan-2-yl)piperidin-3-yl]-1H-1,2,3-triazole-4-carboxamide]",19800
